The source of these data is the METLIN SMRT retention time set (Domingo-Almenara et al. 2019).

The nature of this data set: gradient 5% acetonitrile 3 min, to 50% in 2 min, to 85% in 15 min, held 3 min, 100 µL/min. As to conditions: column: Zorbax Extend-C18 2.1 x 50 mm; eluents: water / acetonitrile, 0.1% formic acid. In short, it runs like this:
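Using water and acetonitrile that each contained 0.1% formic acid, mixtures of ~100 pure standards were separated at 100 μL/min on a Zorbax Extend-C18 column (2.1 × 50 mm, 1.8 μm). The HPLC fed a quadrupole time-of-flight mass spectrometer working in positive and negative ionization mode, with dead and dwell volumes of 40 μL and 900 μL. Data were acquired over 3 months. Retention time was read from computationally picked adduct peaks after manual inspection of each.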
The molecule `Cc1nn(-c2ccc(Cl)cc2)c(C)c1S(=O)(=O)N1CCC(C(=O)NCc2cccs2)CC1` showed an RP-LC retention time of 950 s. For `CCCOc1ccc(-c2nc(N3CCCCC3)c3ccccc3n2)cc1`, the RP-LC retention time was found to be 930 s. In the case of `CCCc1cc(C2CCCN2C(=O)NCc2cccc(OC)c2)no1` (stereo not given), the RP-LC retention time stood at 856 s. `COc1ccc(S(=O)(=O)N2CCN(CCO)CC2)c2ccccc12` registered an RP-LC retention time of 573 s.

For the molecule `Cc1nn(C)c2nc(OC(C)C(=O)NCc3ccc(F)cc3)cc(C(F)(F)F)c12` (stereo not given), the RP-LC retention time amounted to 960 s. For `CCC(C)NC(=O)N1CCN(c2cc(-c3cccc(OC)c3)ncn2)CC1` (stereo not given) the value was 634 s; for `CCCNc1cc(N2CCC(CCC(=O)N(CC)CC)CC2)ncn1`, 538 s; for `CCn1cnnc1C1CCCCN1S(=O)(=O)c1ccccc1F` (stereo not given), 706 s. `O=c1ccc(-c2nc(-c3ccncc3)no2)nn1Cc1cccc(Br)c1` had an RP-LC retention time of 919 s.

With `Fc1ccccc1Cc1nc(-c2cccc(-c3ccn[nH]3)c2)no1`, the RP-LC retention time turned out to be 939 s.

`CCOC(=O)Cn1c(=O)c2c(nc3n2CC(C)CN3c2cc(C)cc(C)c2)n(C)c1=O` (stereo not given) registered an RP-LC retention time of 1050 s. Turning to `Cc1ccc(CNS(=O)(=O)c2ccc(-c3nnc(C)o3)o2)o1`, the RP-LC retention time is 737 s. Then `Cc1ccc(F)cc1S(=O)(=O)N1CCC2(CCN(c3cccnc3)C2)C1` (stereo not given), with 685 s; and `CC(C)c1ccc(S(=O)(=O)N2CCC(C(=O)NCCc3csc(-c4ccccc4)n3)CC2)cc1`, with 1080 s; and `CCCCNC(=O)c1ccc2c(c1)NC(=O)C1CCCCN21` (stereo not given), with 759 s. On to `CCC(NC(=O)c1ccc2c(c1)nc1n2CCN(Cc2ccccc2)C1=O)c1cccs1` (stereo not given), for which the RP-LC retention time turned out to be 836 s. As for `CCCNC(=O)C1CCN(c2ccc(SCC(=O)Nc3ccc(C)c(C)c3)nn2)CC1`, the RP-LC retention time was determined as 685 s. Then `COCCN1C(=O)CCc2cc(NC(=O)Cc3ccc(Cl)cc3)ccc21`, with 806 s; and `Cc1cccc(-n2c(=O)c3c(cc(C)n3C)n(CC(=O)Nc3cccc(C(C)C)c3)c2=O)c1`, with 626 s; and `CCCC(=O)Nc1nc(-c2ccc3c(c2)NC(=O)C(C)O3)c(C)s1` (stereo not given), with 812 s.

For the molecule `Cc1ccccc1C(=O)Nc1cc(-c2cccs2)no1`, the RP-LC retention time worked out at 947 s. Then `Cc1cc(=O)n(CC(=O)Nc2cccc(Cl)c2)c(N(C)Cc2ccccc2)n1`, with 797 s; and `COC(=O)N1CCN(CCNC(=O)Cc2ccc(SC(C)C)cc2)CC1`, with 584 s.

The molecule `O=C(NCc1ccc2c(c1)OCO2)c1nnc2n(c1=O)CCN2c1ccc(F)cc1` came in with an RP-LC retention time of 683 s. `O=C(NCc1ccc(Br)cc1)C1CCN(c2nnc(-c3ccccc3)o2)CC1`: the RP-LC retention time was 884 s. Molecule `CCCNC(=O)C1CCN(c2nc3ccsc3c(=O)n2-c2ccc(C)cc2)CC1` showed an RP-LC retention time of 756 s. Consider `COc1ccccc1NC(=O)c1ccc2nc(-c3ccccc3)cn2c1`, for which the RP-LC retention time was 725 s. Turning to `Fc1cc(F)cc(-c2nnc(Cc3nc(-c4ccc5c(c4)OCO5)no3)o2)c1`, the RP-LC retention time was determined as 987 s.

Consider `CCN1C(SCC(=O)Nc2c(C)cc(C)cc2C)=NS(=O)(=O)c2ccccc21`, for which the RP-LC retention time was determined as 788 s.

`O=C(c1cc(-c2ccco2)on1)N1CCC2(CC1)OCCS2`: the RP-LC retention time was 822 s. `CCCC(=O)Nc1ccc2c(c1)CN(C(=O)c1cccc(Cl)c1)C(C(=O)N(C)C)C2` (stereo not given) gave an RP-LC retention time of 759 s.

In turn, `Cc1csc(-c2ccc(N3CCN(C(=O)c4cccc5[nH]ccc45)CC3)nc2)n1` registered an RP-LC retention time of 756 s. As to `O=C(c1cnccn1)N1CCC(c2nc(-c3ccccc3)no2)C1` (stereo not given), the RP-LC retention time came to 758 s.

Take `COc1ccc(CN2CCC([C@@H]3CNC[C@H]3CO)CC2)cc1Cn1ccnc1`: the RP-LC retention time turned out to be 572 s. With `Cc1ccc(C(=O)N2CCCC2COc2ccc(C(=O)NC(C)C)cc2)cc1F` (stereo not given), the RP-LC retention time was 889 s. Consider `C=CCn1c(=O)c2ccccc2n(Cc2nc(-c3cc(OC)cc(OC)c3)no2)c1=O`, for which the RP-LC retention time stood at 1020 s. Then `CNC(=O)c1noc([C@@H]2CC(F)(F)CN2C(=O)CCOC)n1`, with 607 s; and `Cc1cc(C)cc(C(=O)N2CCC3(CC2)NC(=O)c2cc(Cl)ccc2N3C)c1`, with 850 s. On to `COc1ccc(C(=O)Nc2nc(-c3ccc4c(c3)N(C)C(=O)CO4)cs2)cc1OC`, for which the RP-LC retention time was determined as 785 s. The molecule `COC(=O)c1ccc(NC(=O)c2oc(C)nc2C)cc1` came in with an RP-LC retention time of 658 s. In the case of `O=C(CN1C(=O)CCSc2ccccc21)NCCCN1CCN(Cc2ccccc2)CC1`, the RP-LC retention time turned out to be 614 s.

Consider `Clc1ccc(OCc2nc(-c3cccc(-c4ccn[nH]4)c3)no2)cc1`, for which the RP-LC retention time came out at 1010 s. In turn, `Cc1cc(-c2cc(S(=O)(=O)N(CCN(C)C)Cc3cccs3)c(C)s2)n[nH]1` registered an RP-LC retention time of 658 s. For the molecule `CCNc1ncnc2sc3c(c12)CCN(C(=O)COC)C3`, the RP-LC retention time turned out to be 601 s. Then `COc1ccc(-n2nc(N3CCCC(C(=O)NCc4ccco4)C3)ccc2=O)cc1` (stereo not given), with 740 s; and `O=C(CSc1ccc(N2CCCC(C(=O)NC3CC3)C2)nn1)Nc1ccc(F)c(F)c1` (stereo not given), with 680 s. As for `COc1ccc(NC(=O)c2cnc3c(c2)c(=O)n(C)c(=O)n3-c2ccc(C)cc2)cc1OC`, the RP-LC retention time turned out to be 836 s.

For `COc1ccc(-c2nnc(-c3cccnc3NCCCN3CCCC3=O)o2)cc1`, the RP-LC retention time amounted to 746 s. Regarding `COCCN1C(=O)CCc2cc(NS(=O)(=O)c3ccc(F)cc3)ccc21`, the RP-LC retention time worked out at 759 s. With `CN(C)c1ccc(-c2nc3cnc(Br)cn3c2Nc2ccc3c(c2)OCCO3)cc1`, the RP-LC retention time was 881 s. Then `O=C(NCCc1csc(-c2ccccc2)n1)C1CCN(S(=O)(=O)c2cccc(F)c2)CC1`, with 922 s. Consider `CCOc1ccccc1NC(=O)N1CCCC1c1c(C)noc1C` (stereo not given), for which the RP-LC retention time was determined as 833 s. Take `Cn1nccc1C(=O)NCc1ccc(-c2nc(-c3ccc(F)cc3)no2)s1`: the RP-LC retention time was found to be 930 s. Then `COC(=O)C1=C(NC(=O)c2ccc(N3C(=O)CCC3=O)cc2)CCS1`, with 739 s; and `COC(=O)c1nnc2c(-c3ccc(F)cc3)c(C)nn2c1C`, with 855 s; and `CCOc1ccc(NC(=O)C2(C)Oc3cccnc3N(CC)C2=O)cc1` (stereo not given), with 913 s.

On to `Cc1ccc(S(=O)(=O)Nc2ccc3c(c2)CCC(=O)N3CC(C)C)c(C)c1`, for which the RP-LC retention time worked out at 945 s.

`Cc1nn(C)cc1S(=O)(=O)N(Cc1ccccc1)c1ccccc1` displayed an RP-LC retention time of 861 s. The molecule `Cc1nc(-c2cnccn2)nc2c1CCC(=O)N2Cc1ccco1` had an RP-LC retention time of 683 s. For `CCc1nc2ccccc2c(=O)n1Cc1noc(-c2ccccc2OC)n1`, the RP-LC retention time is 919 s.
